EP4431090A1, “SOLFONAMIDES ACTING AS MITOCHONDRIAL COMPLEX I MODULATOR COMPOUNDS” (Istesso 1 Limited, priority 2023, dated 2024)
Where “and” joins values, the source holds several entries; their conditions need not be identical. Identical values can stand only once. Marks after values point to notes of the source that are not given here.

Assays:
[1] = test system: human primary lung fibroblasts; assay: Cell proliferation (BrdU incorporation, nucleus counts) with compound washout; type: cell-based; settings: for cell proliferation (BRdU incorporation and nucleus counts): pyruvate-restricted conditions, 24-hours compound treatment; for recovery of cell proliferation after compound washout (BrdU incorporation and nucleus counts): 24-hours incubation in pyruvate-free media, highest tested concentration
Description: Human primary lung fibroblasts were plated at a concentration of 5 × 10^3 cells/well in 96well plates in 100 µL DMEM complete media (5.5 mM glucose, 2 mM L-glutamine, and 1 mM pyruvate) containing 1% penicillin-streptomycin and 10% heat-inactivated foetal bovine serum. Cells were incubated overnight at 37°C / 5% CO2 to allow cell attachment. On the day of the treatment, cell culture medium was removed, and the cells were washed three times with Gibco™ DMEM, no glucose, no L-glutamine, no pyruvate, no phenol red + 1% penicillin-streptomycin and 10% heat inactivated foetal bovine serum (termed `basal' culture medium). Fresh cell culture media (without pyruvate) was added to the wells. Test compounds were prepared as 10x final concentration solutions in pyruvate-free medium. Following 24-hours compound treatment (in 5% CO2,37°C cell incubator), spent medium was removed from all wells and were thoroughly washed thrice with basal cell culture medium. For washout assay condition, 100 µL of pyruvate-free media was added per well. For No Washout, 90 µL of pyruvate-free media and 10 µL of 10x final assay concentration prepared test agents (or assay media) were added per well. Recovery of cell proliferation was measured after 24-hours incubation at 37°C / 5% CO2 with either pyruvate-free media (without re-addition of the compound) or re-addition of compounds in pyruvate-free media.
To assess nucleus counts, formaldehyde was added to a final concentration of 4%. Following a further 20-minute incubation at room temperature, the medium was aspirated, the cells were washed twice with 200 µL TBS-T (1x TBS + 0.1% Tween 20) and the nuclei were stained with 50 µL of PBS containing 10% heat inactivated foetal bovine serum, 0.1% Triton-X-100 and 2 µM Hoechst dye. Following a 30-minute incubation at room temperature, protected from light, the cells were washed twice with TBS-T, and cells were counted in 100 µL PBS solution using an ImageXpress Pico system with stitched plate acquisition (4x magnification), DAPI channel (50 ms exposure, -3 digital confocal setting).
When cells grow and divide (termed proliferation), cells progress through the cell cycle, a tightly regulated process that consists of two main activities: DNA replication and mitosis/cell division. As a method of accurately quantifying cellular proliferation rate, the pyrimidine analogue, BrdU can be utilised to measure DNA replication. BrdU can be incorporated into the newly synthesized DNA in place of thymidine. Following incubation of proliferating cells with BrdU for 20 hours, labelling solution was removed thoroughly, and cells were fixed with 70 µL of fix solution for 30 min at room temperature. […] Eu-fluorescence was measured in a time-resolved manner using the PHERAstar FSX (Ex337/ Em620 nm). […]

[2] = test system: human primary myeloid cells (osteoclasts); assay: Mitochondrial phenotype assessment in osteoclasts (electron microscopy); type: cell-based; settings: rotenone 100 nM; Figure 3B
Description: Peripheral blood mononuclear cells were isolated from human whole blood by differential centrifugation over Ficoll-Paque PLUS (GE Healthcare Biosciences). CD14+ monocytes were purified from the freshly isolated PBMCs using the CD14+ selection kit (StemCells. UK) by positive magnetic selection according to manufacturer's instructions . Cells were differentiated to osteoclasts by adding 1×10^6 ml-1 cells in complete minimum essential medium-alpha supplemented with 10% heat inactivated fetal bovine serum (FBS, Invitrogen,UK),2mM glutamine (Invitrogen,UK) 20U ml-1 penicillin, 100ug/ml streptomycin (Sigma ALdrich, UK) along with 25ng ml-1 recombinant human M-CSF (Peprotech, UK) and 25 ng ml-1 RANKL for 6 days. On th^e 6th day, the cells were treated with test compound (final concentration 0.03-1 uM, 0,05 % DMSO) or a control, rotenone (100 nM).
Adherent cells were fixed in 2.5% glutaraldehyde in 0.1 M cacodylate buffer, pH 7.4, for 1 h, post fixed with 1% osmium tetroxide (Electron Microscopy Science), dehydrated in a graded series of ethanol, and embedded in Epon (Electron Microscopy Science). The embedded samples were sectioned by an ultramicrotome (Ultracut E, Richert-Jung, Leica Microsystem). Thin sections (90 nm thick) were collected on 300 mesh nickel grids and stained with uranyl acetate (Electron Microscopy Science) and lead citrate. […]

[3] = test system: collagen-induced arthritis; assay: Mouse collagen-induced arthritis; type: in vivo, DBA/1j mice
[4] = test system: bleomycin-induced lung fibrosis; assay: Mouse bleomycin-induced lung fibrosis; type: in vivo, C57BI/6 mice; settings: scale 0-5, Dose (mg/kg/day): Nintedanib 30 b.d., HMC-C-01-A 10 q.d., mean ± s.e.m.
Description: Eight- to ten-week-old female C57BI/6 mice were used for all procedures. Animals were housed in groups of 4 and were maintained at 22°C ± 3°C on a 12-hour light/dark cycle with food and water ad libitum. Bleomycin was prepared by dissolving in saline at 1.5 mg/mL. All mice were administered intranasally with 3 mg/kg bleomycin. Seven days after bleomycin administration, vehicle control, nintedanib or MCIM compound administration was initiated. Nintedanib was administered twice daily (b.d.) by oral gavage at a total daily dose of 30 mg/kg/day for 14 days. MCIM compounds were administered once daily (q.d.) by oral gavage at a total daily dose of either 10 or 20 mg/kg/day for 14 days.
On the 14th day, lungs were collected after perfusion. The left lung lobe was assessed for fibrosis by measuring total lung hydroxyproline levels. The right lung lobes were fixed and sectioned for histopathology. […]
The data were analysed by generating an average histopathology score across each treatment group. […]

What does the source list for `C=C(C)[C@H]1Cc2c(ccc3c2O[C@@H]2COc4cc(OC)c(OC)cc4[C@@H]2C3=O)O1` [rotenone]?
cell proliferation (BRdU incorporation and nucleus counts) [1]: reduce cell proliferation; recovery of cell proliferation after compound washout (BrdU incorporation and nucleus counts) [1]: no recovery; mitochondrial morphology [2]: increased numbers of abnormal mitochondria which were more rounded and had condensed cristae with evidence of fragmentation

For `C[C@@H]1CCN(C(=O)CC#N)C[C@@H]1N(C)c1ncnc2[nH]ccc12` [Tofacitinib], which “appearance of the osteoid/new bone formed” value ([3]; 10 mg/kg/day MCIM compound, 3 mg/kg/day etanercept, Figure 23, tofacitinib data not shown) is on record?
Its value is “reactive and sporadic deposits”.

And the “Bone resorption (sum) Treatment value” ([3]; once daily for 14 days, Dose (mg/kg/day) as printed: Etanercept 3, HMC-C-01-A 3, all others 10, sum from all limbs per animal per group)?
The value was 48**.

What about the “Bone formation (sum) Treatment value” ([3]; osteoid zones, once daily for 14 days, Dose (mg/kg/day) as printed: Etanercept 3, HMC-C-01-A 3, all others 10, sum from all limbs per animal per group) of the same compound?
The value was 0.

Which “AT2 cell number Treatment value” ([4]; hyperplasia score, ABD900 20 q.d., two studies) does the source give for `COC(=O)c1ccc2c(c1)NC(=O)/C2=C(\Nc1ccc(N(C)C(=O)CN2CCN(C)CC2)cc1)c1ccccc1` [Nintedanib] here?
Its value is 1.6 ± 0.2 and 1.1 ± 0.1.

What about the “AT2 cell size Treatment value” ([4]; hypertrophy score) of the same compound?
The value was 1.6 ± 0.2.

How did the “cell proliferation (BRdU incorporation and nucleus counts)” value [1] turn out when `Cc1nc(-c2nc(-c3ccc(OC(F)(F)F)cc3)no2)nn1Cc1cccc(N2CCC(S(C)(=O)=O)CC2)c1` [IACS-010759] was run?
The value was “reduce cell proliferation”.

And the “recovery of cell proliferation after compound washout (BrdU incorporation and nucleus counts)” value [1]?
The value was “no recovery”.
